In US20170008888A1 (KYORIN PHARMACEUTICAL CO., LTD., priority 2014, published 2017):

Legend:
Type in all cases: binding
ERK5 = biological target: T1, ERK5 (Homo sapiens, UniProt Q13164); test: Probe-based (AX9989 acyl phosphate ATP probe) kinase profiling in Jurkat lysate: ERK5; settings: for IC50: Jurkat lysate; for inhibition at 1 µM: screening concentration 1.0 μM; for inhibition at 10 µM: screening concentration 10 μM, read-out: ERK5 Inhibition % at indicated screening concentration
T1 construct: screened for activity against several kinases in Jurkat cells; endogenous in cells; host or cells: Jurkat cell lysate
Experimental: (§1) In this example, potency of the compounds as ERK5 inhibitors was assessed, and the compounds were screened for activity against several kinases in Jurkat cells.
(§2) Jurkat cell pellets were resuspended in four volumes of lysis buffer (50 mM HEPES pH 7.5, 150 mM NaCl, 0.1% Triton-X-100, 1% v/v phosphatase, inhibitor cocktail II [EMD/Calbiochem, #524625]), sonicated using a tip, sonicator, and Dounce homogenized. Lysate was cleared by centrifugation, at 16,000 g for 15 min., was gel filtered (BioRad 10DG) and MnCl2 was then added to a final concentration of 20 mM before treatment with the test compound and probe labeling. […] All compound treatments were performed at room temperature.
(§3) Acyl phosphate ATP probe (AX9989) labeling reactions were performed at room temperature with a final probe concentration of 5 μM after a 15 min pre-incubation of lysate with a test compound. All reactions were performed in duplicate, using 445 μl/sample at 5 mg/ml. Probe-labeled lysates were denatured and reduced (6 M urea, 10 mM DTT, 65° C., 15 min), alkylated (40 mM iodoacetamide, 37° C., 30 min, and gel filtered (Sephadex G25) into 10 mM ammonium bicarbonate, 2 M urea, 5 mM methionine. The desalted protein mixture was digested with trypsin (0.015 mg/ml) for 1 hr at 37° C., and desthiobiotinylated peptides were captured using a […] high-capacity streptavidin resin (Thermo Scientific). Captured peptides were then washed extensively using 150 μl/wash with three different wash buffers: (A) 3 times with 1% triton, 0.5% tergitol, 1 mM EDTA in PBS; (B) 18 times with PBS; and (C) 8 times with HPLC grade water. Peptides were eluted from the streptavidin beads using two 35-μL washes of a 50% CH3CN/water mixture containing 0.1% TFA at room temperature.
(§4) Kinase active site peptides were identified and quantified using LC/MS. Percent inhibition was calculated as the normalized decrease in the ESI-MS fragment intensities of probe-labeled peptides in samples incubated with the test compound compared to those without.
ERK5 IC50 values were calculated from the percent inhibition and the screening concentration.

AurA = biological target: T2, AurA (Homo sapiens, UniProt O14965); test: Probe-based (AX9989) kinase profiling in Jurkat lysate: AurA; settings: for inhibition at 1 µM: screening concentration 1.0 μM; for inhibition at 10 µM: screening concentration 10 μM, read-out: AurA Inhibition % at indicated screening concentration
T2 construct: screened for activity against several kinases in Jurkat cells; endogenous in cells; host or cells: Jurkat cell lysate
T2 sequence (O14965 1-403): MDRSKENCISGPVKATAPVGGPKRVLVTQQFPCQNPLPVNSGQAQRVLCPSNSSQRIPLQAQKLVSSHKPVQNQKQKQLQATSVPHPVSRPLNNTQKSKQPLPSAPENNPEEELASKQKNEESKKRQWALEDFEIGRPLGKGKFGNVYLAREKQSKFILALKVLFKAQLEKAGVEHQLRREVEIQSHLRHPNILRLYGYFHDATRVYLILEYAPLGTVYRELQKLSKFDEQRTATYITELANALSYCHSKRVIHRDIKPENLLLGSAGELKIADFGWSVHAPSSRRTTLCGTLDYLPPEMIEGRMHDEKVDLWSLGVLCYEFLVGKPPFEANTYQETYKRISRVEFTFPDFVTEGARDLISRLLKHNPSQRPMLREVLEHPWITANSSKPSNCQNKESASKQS
Experimental: as §1, §2, §3, §4

AurB or AurC = test: Probe-based (AX9989) kinase profiling in Jurkat lysate: AurB or AurC; settings: for AurB or AurC Inhibition % at indicated screening concentration: screening concentration 10 μM
Experimental: as §1, §2, §3, §4

JAK1 = biological target: T3, JAK1 (Homo sapiens, UniProt P23458); test: Probe-based (AX9989) kinase profiling in Jurkat lysate: JAK1; settings: for inhibition at 1 µM: screening concentration 1.0 μM; for inhibition at 10 µM: screening concentration 10 μM, read-out: JAK1 Inhibition % at indicated screening concentration
T3 construct: screened for activity against several kinases in Jurkat cells; endogenous in cells; host or cells: Jurkat cell lysate
Experimental: as §1, §2, §3, §4

AMPKa1 or AMPKa2 = test: Probe-based (AX9989) kinase profiling in Jurkat lysate: AMPKa1 or AMPKa2; settings: for AMPKa1 or AMPKa2 Inhibition % at indicated screening concentration: screening concentration 10 μM
Experimental: as §1, §2, §3, §4

TAO2 = biological target: T4, TAO2 (Homo sapiens, UniProt Q9UL54); test: Probe-based (AX9989) kinase profiling in Jurkat lysate: TAO2; settings: for inhibition at 1 µM: screening concentration 1.0 μM; for inhibition at 10 µM: screening concentration 10 μM, read-out: TAO2 Inhibition % at indicated screening concentration
T4 construct: screened for activity against several kinases in Jurkat cells; endogenous in cells; host or cells: Jurkat cell lysate
T4 sequence (Q9UL54 1-1235): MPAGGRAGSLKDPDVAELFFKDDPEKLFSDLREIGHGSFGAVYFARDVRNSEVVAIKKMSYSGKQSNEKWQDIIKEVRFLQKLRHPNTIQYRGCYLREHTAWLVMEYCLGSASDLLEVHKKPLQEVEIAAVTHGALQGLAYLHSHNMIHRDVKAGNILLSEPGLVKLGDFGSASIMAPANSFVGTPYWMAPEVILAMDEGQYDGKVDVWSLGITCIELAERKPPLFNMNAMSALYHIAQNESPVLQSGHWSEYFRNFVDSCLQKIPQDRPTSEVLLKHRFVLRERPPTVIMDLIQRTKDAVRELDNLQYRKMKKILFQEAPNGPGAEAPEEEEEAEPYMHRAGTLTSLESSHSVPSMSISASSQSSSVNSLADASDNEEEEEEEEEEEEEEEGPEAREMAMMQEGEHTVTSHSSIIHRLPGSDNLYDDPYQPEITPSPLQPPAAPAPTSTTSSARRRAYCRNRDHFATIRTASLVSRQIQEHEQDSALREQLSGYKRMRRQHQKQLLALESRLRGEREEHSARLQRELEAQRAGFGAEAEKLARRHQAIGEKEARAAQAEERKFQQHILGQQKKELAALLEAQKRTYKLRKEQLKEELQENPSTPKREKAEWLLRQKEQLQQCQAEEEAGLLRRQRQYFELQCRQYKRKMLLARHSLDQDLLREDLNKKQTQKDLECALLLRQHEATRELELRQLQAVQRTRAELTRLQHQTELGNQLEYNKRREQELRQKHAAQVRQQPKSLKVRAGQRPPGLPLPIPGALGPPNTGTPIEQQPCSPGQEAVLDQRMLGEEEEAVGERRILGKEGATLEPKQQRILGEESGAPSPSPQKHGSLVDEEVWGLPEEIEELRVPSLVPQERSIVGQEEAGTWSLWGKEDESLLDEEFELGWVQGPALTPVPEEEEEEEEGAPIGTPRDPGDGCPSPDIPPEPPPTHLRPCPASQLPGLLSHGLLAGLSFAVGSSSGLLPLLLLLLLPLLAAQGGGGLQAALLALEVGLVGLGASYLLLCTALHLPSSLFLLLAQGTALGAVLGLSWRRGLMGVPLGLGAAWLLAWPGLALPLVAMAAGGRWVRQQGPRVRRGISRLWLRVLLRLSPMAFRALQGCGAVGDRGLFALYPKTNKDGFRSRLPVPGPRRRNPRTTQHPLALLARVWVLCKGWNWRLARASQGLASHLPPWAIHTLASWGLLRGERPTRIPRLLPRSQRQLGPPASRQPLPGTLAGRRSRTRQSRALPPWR
Experimental: as §1, §2, §3, §4

ACK = biological target: T5, ACK (Homo sapiens, UniProt Q07912); test: Probe-based (AX9989) kinase profiling in Jurkat lysate: ACK; settings: for inhibition at 1 µM: screening concentration 1.0 μM; for inhibition at 10 µM: screening concentration 10 μM, read-out: ACK Inhibition % at indicated screening concentration
T5 construct: screened for activity against several kinases in Jurkat cells; endogenous in cells; host or cells: Jurkat cell lysate
Experimental: as §1, §2, §3, §4

ABL or ARG = test: Probe-based (AX9989) kinase profiling in Jurkat lysate: ABL or ARG; settings: for ABL or ARG Inhibition % at indicated screening concentration: screening concentration 10 μM
Experimental: as §1, §2, §3, §4

[1] = calculated from percent inhibition of AX9989 labeling and the screening concentration
[2] = read-out: Kinase inhibition % at indicated screening concentration: ERK5
[3] = read-out: Kinase inhibition % at indicated screening concentration: AurA
[4] = read-out: Kinase inhibition % at indicated screening concentration: JAK1
[5] = read-out: Kinase inhibition % at indicated screening concentration: TAO2
[6] = read-out: Kinase inhibition % at indicated screening concentration: ACK
[7] = calculated from percent inhibition and screening concentration, AX9989 probe

T5 sequence (Q07912 whole entry): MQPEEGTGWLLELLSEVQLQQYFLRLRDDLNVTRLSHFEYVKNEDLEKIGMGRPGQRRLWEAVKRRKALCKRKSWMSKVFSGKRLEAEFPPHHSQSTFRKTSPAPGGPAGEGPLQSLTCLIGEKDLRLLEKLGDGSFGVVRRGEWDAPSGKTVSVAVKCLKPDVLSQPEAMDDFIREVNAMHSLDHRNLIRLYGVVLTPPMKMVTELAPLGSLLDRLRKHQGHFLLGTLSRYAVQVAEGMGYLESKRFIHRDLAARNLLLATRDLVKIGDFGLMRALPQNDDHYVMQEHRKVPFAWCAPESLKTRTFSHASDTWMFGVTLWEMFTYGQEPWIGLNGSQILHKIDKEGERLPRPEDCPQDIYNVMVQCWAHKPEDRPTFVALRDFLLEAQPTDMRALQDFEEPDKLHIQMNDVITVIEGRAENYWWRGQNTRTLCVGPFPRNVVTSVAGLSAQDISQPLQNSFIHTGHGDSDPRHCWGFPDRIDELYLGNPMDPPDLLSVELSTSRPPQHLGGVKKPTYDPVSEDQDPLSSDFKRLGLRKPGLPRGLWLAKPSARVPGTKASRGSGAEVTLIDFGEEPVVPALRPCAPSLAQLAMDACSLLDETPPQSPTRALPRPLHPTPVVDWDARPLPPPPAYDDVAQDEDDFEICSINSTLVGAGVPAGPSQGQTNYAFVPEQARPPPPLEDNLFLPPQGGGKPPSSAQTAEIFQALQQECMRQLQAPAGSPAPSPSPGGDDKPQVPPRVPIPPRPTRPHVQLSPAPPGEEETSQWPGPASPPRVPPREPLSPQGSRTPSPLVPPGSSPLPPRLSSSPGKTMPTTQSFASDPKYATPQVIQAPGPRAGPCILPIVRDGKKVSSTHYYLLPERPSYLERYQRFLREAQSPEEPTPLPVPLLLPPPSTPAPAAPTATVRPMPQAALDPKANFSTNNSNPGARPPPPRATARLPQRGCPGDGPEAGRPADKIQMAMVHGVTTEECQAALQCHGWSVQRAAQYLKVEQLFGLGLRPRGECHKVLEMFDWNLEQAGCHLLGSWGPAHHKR
T3 sequence (P23458 whole entry): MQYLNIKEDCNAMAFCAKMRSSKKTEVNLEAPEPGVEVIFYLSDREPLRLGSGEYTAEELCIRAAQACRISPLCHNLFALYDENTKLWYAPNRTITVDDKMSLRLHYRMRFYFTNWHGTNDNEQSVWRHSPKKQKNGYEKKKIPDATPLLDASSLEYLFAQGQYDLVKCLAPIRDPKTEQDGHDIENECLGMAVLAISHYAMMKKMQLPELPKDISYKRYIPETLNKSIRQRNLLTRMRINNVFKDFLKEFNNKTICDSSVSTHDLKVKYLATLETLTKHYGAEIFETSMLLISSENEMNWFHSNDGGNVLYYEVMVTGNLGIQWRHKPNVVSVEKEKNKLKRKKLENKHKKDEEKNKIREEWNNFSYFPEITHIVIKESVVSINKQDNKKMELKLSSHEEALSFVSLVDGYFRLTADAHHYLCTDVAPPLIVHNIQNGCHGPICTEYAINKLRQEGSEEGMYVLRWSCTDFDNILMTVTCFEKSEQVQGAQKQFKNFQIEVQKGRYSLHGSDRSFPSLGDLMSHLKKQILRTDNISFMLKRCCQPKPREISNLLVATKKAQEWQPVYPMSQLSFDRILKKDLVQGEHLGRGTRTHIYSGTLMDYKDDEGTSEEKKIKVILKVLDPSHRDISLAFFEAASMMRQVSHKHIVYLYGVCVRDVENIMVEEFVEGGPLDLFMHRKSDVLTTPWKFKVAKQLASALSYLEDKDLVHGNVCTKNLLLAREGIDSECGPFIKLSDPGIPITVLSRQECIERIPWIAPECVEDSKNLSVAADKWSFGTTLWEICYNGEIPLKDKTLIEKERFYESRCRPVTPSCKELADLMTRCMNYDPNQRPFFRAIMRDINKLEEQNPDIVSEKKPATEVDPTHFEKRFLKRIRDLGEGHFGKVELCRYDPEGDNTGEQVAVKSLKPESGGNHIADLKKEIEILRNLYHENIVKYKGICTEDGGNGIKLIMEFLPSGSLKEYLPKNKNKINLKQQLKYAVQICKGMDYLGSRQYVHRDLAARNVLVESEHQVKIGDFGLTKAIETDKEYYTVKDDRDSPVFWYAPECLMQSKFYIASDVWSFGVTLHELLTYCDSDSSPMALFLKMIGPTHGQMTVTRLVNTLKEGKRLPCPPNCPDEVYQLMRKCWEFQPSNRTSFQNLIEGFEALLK
T1 sequence (Q13164 whole entry): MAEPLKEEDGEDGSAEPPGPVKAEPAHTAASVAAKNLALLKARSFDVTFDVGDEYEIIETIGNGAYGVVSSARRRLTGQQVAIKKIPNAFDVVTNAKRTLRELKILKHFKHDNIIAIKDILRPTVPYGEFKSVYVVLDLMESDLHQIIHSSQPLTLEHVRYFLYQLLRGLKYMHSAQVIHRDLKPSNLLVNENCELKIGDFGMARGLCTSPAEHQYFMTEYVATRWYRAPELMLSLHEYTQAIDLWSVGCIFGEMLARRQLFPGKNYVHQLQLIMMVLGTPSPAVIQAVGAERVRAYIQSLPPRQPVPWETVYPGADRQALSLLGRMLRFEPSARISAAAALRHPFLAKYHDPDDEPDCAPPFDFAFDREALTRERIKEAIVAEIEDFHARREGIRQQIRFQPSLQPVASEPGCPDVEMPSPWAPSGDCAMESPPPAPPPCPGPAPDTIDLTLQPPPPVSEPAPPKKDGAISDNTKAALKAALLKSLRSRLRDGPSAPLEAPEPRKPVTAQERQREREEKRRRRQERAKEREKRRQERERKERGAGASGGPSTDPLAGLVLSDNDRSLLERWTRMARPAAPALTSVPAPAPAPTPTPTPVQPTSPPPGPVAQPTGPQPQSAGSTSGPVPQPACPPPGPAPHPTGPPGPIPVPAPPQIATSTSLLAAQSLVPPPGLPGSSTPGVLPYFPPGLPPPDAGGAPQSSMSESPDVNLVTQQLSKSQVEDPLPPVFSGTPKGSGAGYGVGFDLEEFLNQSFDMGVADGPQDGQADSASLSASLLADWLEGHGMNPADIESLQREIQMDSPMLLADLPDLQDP

SMILES | IC50 (ERK5; [1]) | inhibition at 1 µM (ERK5; [2]) | inhibition at 1 µM (AurA; [3]) | Kinase inhibition % at indicated screening concentration: AurB or AurC (AurB or AurC; screening concentration 1.0 μM) | inhibition at 1 µM (JAK1; [4]) | Kinase inhibition % at indicated screening concentration: AMPKa1 or AMPKa2 (AMPKa1 or AMPKa2; screening concentration 1.0 μM) | inhibition at 1 µM (TAO2; [5]) | inhibition at 1 µM (ACK; [6]) | Kinase inhibition % at indicated screening concentration: ABL or ARG (ABL or ARG; screening concentration 1.0 μM) | IC50 (ERK5; [7]) | inhibition at 10 µM (ERK5) | inhibition at 10 µM (AurA) | AurB or AurC Inhibition % at indicated screening concentration (AurB or AurC) | inhibition at 10 µM (JAK1) | AMPKa1 or AMPKa2 Inhibition % at indicated screening concentration (AMPKa1 or AMPKa2) | inhibition at 10 µM (TAO2) | inhibition at 10 µM (ACK) | ABL or ARG Inhibition % at indicated screening concentration (ABL or ARG) | further results
CN1C(=O)C2CCCCC2N(C)c2cc(NC3CCC(N)CC3)ncc21 (stereo not drawn) [Compound 97] | > 500 nM | ≤ 35% | ≤ 35% | E (E is ≦35%) | ≤ 35% | E (E is ≦35%) | ≤ 35% | ≤ 35% | E (E is ≦35%) | – | – | – | – | – | – | – | – | – | –
CCOc1cc(C(=O)O)ccc1Nc1cc2c(cn1)N(C)S(=O)(=O)c1ccccc1N2C [Compound T1] | – | – | – | – | – | – | – | – | – | > 500 nM | ≤ 35% | ≤ 35% | E (E is ≦35%) | ≤ 35% | E (E is ≦35%) | ≤ 35% | ≤ 35% | E (E is ≦35%) | –
CCOc1cc(C(=O)N2CCC(N3CCCC3)CC2)ccc1Nc1cc2c(cn1)N(C)S(=O)(=O)c1ccccc1N2C [Compound T2] | – | – | – | – | – | – | – | – | – | > 500 nM | 35 to 50% | ≤ 35% | E (E is ≦35%) | ≤ 35% | E (E is ≦35%) | ≤ 35% | ≤ 35% | E (E is ≦35%) | –

Further lines, with some results ahead:

IC50 (ERK5; [1]) | inhibition at 1 µM (ERK5; [2]) | inhibition at 1 µM (AurA; [3]) | Kinase inhibition % at indicated screening concentration: AurB or AurC (AurB or AurC; screening concentration 1.0 μM) | inhibition at 1 µM (JAK1; [4]) | Kinase inhibition % at indicated screening concentration: AMPKa1 or AMPKa2 (AMPKa1 or AMPKa2; screening concentration 1.0 μM) | inhibition at 1 µM (TAO2; [5]) | inhibition at 1 µM (ACK; [6]) | Kinase inhibition % at indicated screening concentration: ABL or ARG (ABL or ARG; screening concentration 1.0 μM) | IC50 (ERK5; [7]) | inhibition at 10 µM (ERK5) | inhibition at 10 µM (AurA) | AurB or AurC Inhibition % at indicated screening concentration (AurB or AurC) | inhibition at 10 µM (JAK1) | AMPKa1 or AMPKa2 Inhibition % at indicated screening concentration (AMPKa1 or AMPKa2) | inhibition at 10 µM (TAO2) | inhibition at 10 µM (ACK) | ABL or ARG Inhibition % at indicated screening concentration (ABL or ARG) | SMILES | further results
> 500 nM | 35 to 50% | ≤ 35% | E (E is ≦35%) | ≤ 35% | E (E is ≦35%) | ≤ 35% | ≤ 35% | E (E is ≦35%) | – | – | – | – | – | – | – | – | – | CCOc1cc(Cl)ccc1Nc1cc2c(cn1)N(C)C(=O)c1ccccc1N2C [Compound 104] | –
101 to 500 nM | – | – | – | – | – | – | – | – | – | – | – | – | – | – | – | – | – | CCOc1cc(CO)ccc1Nc1cc2c(cn1)N(C)C(=O)c1ccccc1N2C [Compound 112] | inhibition at 0.1 µM (ERK5; screening concentration 0.1 μM, read-out: Kinase inhibition % at indicated screening concentration: ERK5): 35 to 50%; inhibition at 0.1 µM (AurA; screening concentration 0.1 μM, read-out: Kinase inhibition % at indicated screening concentration: AurA): ≤ 35%; Kinase inhibition % at indicated screening concentration: AurB or AurC (AurB or AurC; screening concentration 0.1 μM): E (E is ≦35%); inhibition at 0.1 µM (JAK1; screening concentration 0.1 μM, read-out: Kinase inhibition % at indicated screening concentration: JAK1): ≤ 35%; Kinase inhibition % at indicated screening concentration: AMPKa1 or AMPKa2 (AMPKa1 or AMPKa2; screening concentration 0.1 μM): E (E is ≦35%); inhibition at 0.1 µM (TAO2; screening concentration 0.1 μM, read-out: Kinase inhibition % at indicated screening concentration: TAO2): ≤ 35%; inhibition at 0.1 µM (ACK; screening concentration 0.1 μM, read-out: Kinase inhibition % at indicated screening concentration: ACK): ≤ 35%; Kinase inhibition % at indicated screening concentration: ABL or ARG (ABL or ARG; screening concentration 0.1 μM): E (E is ≦35%)
